Assay results taken from patent US9133158B2, “Bicyclic dihydroisoquinoline-1-one derivatives” (Hoffmann-La Roche Inc., priority 2011, dated 2015).

Tests used:
human CYP11B2 = biological target: T1, human CYP11B2 (Homo sapiens, UniProt P19099); assay: G-402 cellular enzyme assay, human CYP11B2 (aldosterone release, HTRF); assay type: cell-based; conditions: G-402 cells, 1 μM Deoxycorticosterone
T1 construct: expressed in transfected cells
T1 sequence (P19099 25-503): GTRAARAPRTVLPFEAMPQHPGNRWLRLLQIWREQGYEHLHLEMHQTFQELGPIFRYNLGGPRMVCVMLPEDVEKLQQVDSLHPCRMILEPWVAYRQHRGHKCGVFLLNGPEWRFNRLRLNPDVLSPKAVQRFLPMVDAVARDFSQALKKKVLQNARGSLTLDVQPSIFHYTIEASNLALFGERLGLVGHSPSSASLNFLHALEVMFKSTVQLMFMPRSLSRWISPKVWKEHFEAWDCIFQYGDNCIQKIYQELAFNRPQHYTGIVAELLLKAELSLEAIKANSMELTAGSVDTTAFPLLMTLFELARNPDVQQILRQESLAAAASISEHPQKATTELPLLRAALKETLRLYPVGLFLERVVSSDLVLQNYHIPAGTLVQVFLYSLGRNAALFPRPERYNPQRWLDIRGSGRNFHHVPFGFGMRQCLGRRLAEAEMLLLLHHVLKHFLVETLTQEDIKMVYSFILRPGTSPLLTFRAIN
In short: (§1)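 G-402 cells stably expressing human CYP11B1 or CYP11B2 incubated 16 h in DMEM/F12 with 2.5% charcoal-treated FCS, compound, and 1 μM 11-deoxycortisol (B1) or 1 μM deoxycorticosterone (B2). Cortisol (B1) or aldosterone (B2) in supernatant measured by HTRF; EC50 from 4-parameter MMF fit.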

human CYP11B1 = biological target: T2, human CYP11B1 (Homo sapiens, UniProt P15538); assay: G-402 cellular enzyme assay, human CYP11B1 (cortisol release, HTRF); assay type: cell-based; conditions: G-402 cells, 1 μM Deoxycortisol
T2 construct: expressed in transfected cells
T2 sequence (P15538 25-503): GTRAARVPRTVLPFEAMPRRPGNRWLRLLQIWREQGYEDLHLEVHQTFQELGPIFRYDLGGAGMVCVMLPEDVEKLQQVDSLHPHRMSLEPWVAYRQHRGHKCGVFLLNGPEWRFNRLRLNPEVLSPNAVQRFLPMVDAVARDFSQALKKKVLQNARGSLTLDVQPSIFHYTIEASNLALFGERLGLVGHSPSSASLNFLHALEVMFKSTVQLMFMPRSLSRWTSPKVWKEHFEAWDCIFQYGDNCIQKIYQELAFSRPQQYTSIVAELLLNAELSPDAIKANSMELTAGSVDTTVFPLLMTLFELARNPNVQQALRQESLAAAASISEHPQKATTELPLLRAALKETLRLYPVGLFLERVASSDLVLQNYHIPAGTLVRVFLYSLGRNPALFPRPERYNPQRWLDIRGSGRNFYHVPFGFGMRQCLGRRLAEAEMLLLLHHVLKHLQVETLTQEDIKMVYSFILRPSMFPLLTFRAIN
In short: as §1

SMILES | EC50 (human CYP11B2) [µM] | EC50 (human CYP11B1) [µM]
C[C@H]1Cc2cc(Cl)ccc2C(=O)N1c1cccnc1 [Example 92, (S)-6-Chloro-3-methyl-2-pyridin-3-yl-3,4-dihydro-2H-isoquinolin-1-one] | 0.268 | 11.4
CC1Cc2cccc(Cl)c2C(=O)N1c1cccnc1 (stereo not shown) [Example 93, 8-Chloro-3-methyl-2-pyridin-3-yl-3,4-dihydro-2H-isoquinolin-1-one] | 0.775 | 14
O=C1c2ccc(Cl)c(Cl)c2CCN1c1cccnc1 [Example 95, 5,6-Dichloro-2-pyridin-3-yl-3,4-dihydro-2H-isoquinolin-1-one] | 0.327 | 10.3
COc1cncc(N2CCc3nc(OC)ccc3C2=O)c1 [Example 97, 2-Methoxy-6-(5-methoxy-pyridin-3-yl)-7,8-dihydro-6H-[1,6]naphthyridin-5-one] | 0.0169 | 0.22
COc1ccc2c(n1)CCN(c1cccnc1)C2=O [Example 98, 2-Methoxy-6-pyridin-3-yl-7,8-dihydro-6H-[1,6]naphthyridin-5-one] | 0.227 | 6.83
COc1cncc(N2CCc3c(ccc(Cl)c3F)C2=O)c1 [Example 99, 6-Chloro-5-fluoro-2-(5-methoxy-pyridin-3-yl)-3,4-dihydro-2H-isoquinolin-1-one] | 0.901 | 7.27
O=C1c2cc(F)c(Cl)cc2CCN1c1cccnc1 [Example 101, 6-Chloro-7-fluoro-2-pyridin-3-yl-3,4-dihydro-2H-isoquinolin-1-one] | 0.104 | 3.54
CC1c2cc(Cl)ccc2C(=O)N1c1cccnc1 (stereo not shown) [Example 118, 5-Chloro-3-methyl-2-pyridin-3-yl-2,3-dihydro-isoindol-1-one] | 0.123 | 1.25
Cc1ccncc1N1C(=O)c2ccc(Cl)cc2C1C (stereo not shown) [Example 121, 5-Chloro-3-methyl-2-(4-methyl-pyridin-3-yl)-2,3-dihydro-isoindol-1-one] | 0.0071 | 0.039
CC(O)c1cncc(N2C(=O)c3ccc(Cl)cc3C2C)c1 (stereo not shown) [Example 122, 5-Chloro-2-[5-(1-hydroxy-ethyl)-pyridin-3-yl]-3-methyl-2,3-dihydro-isoindol-1-one] | 0.0423 | 0.18
CC1c2cc(Cl)ccc2C(=O)N1c1cncc(F)c1 (stereo not shown) [Example 123, 5-Chloro-2-(5-fluoro-pyridin-3-yl)-3-methyl-2,3-dihydro-isoindol-1-one] | 0.122 | 7.73
O=C1c2ccc(Cl)cc2C(Cc2ccccc2)N1c1cccnc1 (stereo not shown) [Example 124, 3-Benzyl-5-chloro-2-pyridin-3-yl-2,3-dihydro-isoindol-1-one] | 1.07 | 0.225
CCC1c2cc(Cl)ccc2C(=O)N1c1cccnc1 (stereo not shown) [Example 125, 5-Chloro-3-ethyl-2-pyridin-3-yl-2,3-dihydro-isoindol-1-one] | 0.121 | 3.34
CCC1c2cc(Cl)ccc2C(=O)N1c1cncc(F)c1 (stereo not shown) [Example 126, 5-Chloro-3-ethyl-2-(5-fluoro-pyridin-3-yl)-2,3-dihydro-isoindol-1-one] | 0.0379 | 3.56

Second part, the compound after the results:

EC50 (human CYP11B2) [µM] | EC50 (human CYP11B1) [µM] | SMILES
0.251 | 9.37 | CC(C)c1nccn1Cc1cncc(N2C(=O)c3ccc(Cl)cc3CC2C)c1 (stereo not shown) [Example 87, 6-Chloro-2-[5-(2-isopropyl-imidazol-1-ylmethyl)-pyridin-3-yl]-3-methyl-3,4-dihydro-2H-isoquinolin-1-one]
0.272 | 16.8 | CC1Cc2cc(Cl)ccc2C(=O)N1c1cncc(F)c1 (stereo not shown) [Example 89, 6-Chloro-2-(5-fluoro-pyridin-3-yl)-3-methyl-3,4-dihydro-2H-isoquinolin-1-one]
0.0458 | 0.533 | COc1cncc(N2CCc3nc(Cl)ccc3C2=O)c1 [Example 96, 2-Chloro-6-(5-methoxy-pyridin-3-yl)-7,8-dihydro-6H-[1,6]naphthyridin-5-one]
0.0172 | 0.485 | COc1cncc(N2CCc3cc(Cl)c(F)cc3C2=O)c1 [Example 100, 6-Chloro-7-fluoro-2-(5-methoxy-pyridin-3-yl)-3,4-dihydro-2H-isoquinolin-1-one]
0.564 | 11 | COc1cncc(N2CC(C)(C)c3cc(Cl)ccc3C2=O)c1 [Example 103, 6-Chloro-2-(5-methoxy-pyridin-3-yl)-4,4-dimethyl-3,4-dihydro-2H-isoquinolin-1-one]
2.34 | 59.8 | CC1(C)CN(c2cncc(F)c2)C(=O)c2ccc(Cl)cc21 [Example 104, 6-Chloro-2-(5-fluoro-pyridin-3-yl)-4,4-dimethyl-3,4-dihydro-2H-isoquinolin-1-one]
0.382 | 4.49 | CC1CN(c2cccnc2)C(=O)c2ccc(Cl)cc21 (stereo not shown) [Example 105, 6-Chloro-4-methyl-2-pyridin-3-yl-3,4-dihydro-2H-isoquinolin-1-one]
0.516 | 8.56 | CC1CN(c2cncc(F)c2)C(=O)c2ccc(Cl)cc21 (stereo not shown) [Example 106, 6-Chloro-2-(5-fluoro-pyridin-3-yl)-4-methyl-3,4-dihydro-2H-isoquinolin-1-one]
0.0635 | 0.77 | COc1cncc(N2CC(C)c3cc(Cl)ccc3C2=O)c1 (stereo not shown) [Example 107, 6-Chloro-2-(5-methoxy-pyridin-3-yl)-4-methyl-3,4-dihydro-2H-isoquinolin-1-one]
0.163 | 9.78 | O=C1c2ccc(Cl)cc2CN1c1cccnc1 [Example 108, 5-Chloro-2-pyridin-3-yl-2,3-dihydro-isoindol-1-one]
0.229 | 1.35 | CC(C)c1nccn1Cc1cncc(N2Cc3cc(Cl)ccc3C2=O)c1 [Example 109, 5-Chloro-2-[5-(2-isopropyl-imidazol-1-ylmethyl)-pyridin-3-yl]-2,3-dihydro-isoindol-1-one]
0.184 | 1.28 | O=C1c2ccc(Cl)cc2CN1c1cncc(Cn2cncn2)c1 [Example 110, 5-Chloro-2-(5-[1,2,4]triazol-1-ylmethyl-pyridin-3-yl)-2,3-dihydro-isoindol-1-one]
0.0642 | 0.923 | Cc1nccn1Cc1cncc(N2Cc3cc(Cl)ccc3C2=O)c1 [Example 111, 5-Chloro-2-[5-(2-methyl-imidazol-1-ylmethyl)-pyridin-3-yl]-2,3-dihydro-isoindol-1-one]
0.674 | 12 | O=C1CCCN1Cc1cncc(N2Cc3cc(Cl)ccc3C2=O)c1 [Example 112, 5-Chloro-2-[5-(2-oxo-pyrrolidin-1-ylmethyl)-pyridin-3-yl]-2,3-dihydro-isoindol-1-one]
0.342 | 1.36 | COC[C@@H]1CCCN1Cc1cncc(N2Cc3cc(Cl)ccc3C2=O)c1 [Example 113, 5-Chloro-2-[5-((S)-2-methoxymethyl-pyrrolidin-1-ylmethyl)-pyridin-3-yl]-2,3-dihydro-isoindol-1-one]
0.424 | 12.8 | O=C1CCCCN1Cc1cncc(N2Cc3cc(Cl)ccc3C2=O)c1 [Example 114, 5-Chloro-2-[5-(2-oxo-piperidin-1-ylmethyl)-pyridin-3-yl]-2,3-dihydro-isoindol-1-one]
0.682 | 13.5 | CCS(=O)(=O)NCc1cncc(N2Cc3cc(Cl)ccc3C2=O)c1 [Example 115, Ethanesulfonic acid [5-(5-chloro-1-oxo-1,3-dihydro-isoindol-2-yl)-pyridin-3-ylmethyl]-amide]
0.132 | 5.13 | Cn1ncc2c(N3Cc4cc(Cl)ccc4C3=O)cncc21 [Example 116, 5-Chloro-2-(1-methyl-1H-pyrazolo[3,4-c]pyridin-4-yl)-2,3-dihydro-isoindol-1-one]
0.127 | 0.894 | O=C1c2ccc(Cl)cc2CN1c1cncc2c1CCCC2O (stereo not shown) [Example 117, 5-Chloro-2-(8-hydroxy-5,6,7,8-tetrahydro-isoquinolin-4-yl)-2,3-dihydro-isoindol-1-one]
0.0247 | 0.207 | COc1cncc(N2C(=O)c3ccc(Cl)cc3C2C)c1 (stereo not shown) [Example 120, 5-Chloro-2-(5-methoxy-pyridin-3-yl)-3-methyl-2,3-dihydro-isoindol-1-one]
0.0545 | 0.266 | CCC1c2cc(Cl)ccc2C(=O)N1c1cncc(OC)c1 (stereo not shown) [Example 127, 5-Chloro-3-ethyl-2-(5-methoxy-pyridin-3-yl)-2,3-dihydro-isoindol-1-one]
